According to patent US9113629B2, “4-amino-6-(4-substituted-phenyl)-picolinates and 6-amino-2-(4-substituted-phenyl)-pyrimidine-4-carboxylates and their use as herbicides” (DOW AGROSCIENCES LLC, priority 2013, dated 2015):
Like-named read-outs stand apart in the source and are kept apart here.

Legend:
[1] = test system: Key Broadleaf Weed and Crop Species; experiment: Post-emergent Test II herbicidal activity (Table 5); type: in vivo; conditions: post-emergence, 336 h, post-emergent, 14 days after application; for pest or weed control at 70 g/ha: 70 g ai/ha; for pest or weed control at 140 g/ha: 140 g ai/ha
In short: (§1)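 Spray rates: a highest rate plus ½×, ¼×, ⅛×, 1/16×, all delivered at 187 L/ha to plants at the first–second true leaf stage. Readout is a visual percent injury score at 14 d, where 100 means complete kill.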

[2] = test system: Key Grass and Sedge Weeds as well as Grass Crops; experiment: Post-emergent Test II herbicidal activity (Table 6); type: in vivo; conditions: post-emergence, 336 h; for pest or weed control at 70 g/ha: application rate 70 g ai/ha; for pest or weed control at 140 g/ha: application rate 140 g ai/ha
In short: as §1

[3] = ABUTH: velvetleaf (Abutilon theophrasti), read-out: Visual Growth Reduction (%) 14 Days After Application ABUTH
[4] = AMARE: redroot pigweed (Amaranthus retroflexus), read-out: Visual Growth Reduction (%) 14 Days After Application AMARE
[5] = BRSNN: oilseed-rape, canola (Brassica napus), read-out: Visual Growth Reduction (%) 14 Days After Application BRSNN
[6] = CHEAL: lambsquarters (Chenopodium album), read-out: Visual Growth Reduction (%) 14 Days After Application CHEAL
[7] = EPHHL: wild poinsettia (Euphorbia heterophylla), read-out: Visual Growth Reduction (%) 14 Days After Application EPHHL
[8] = HELAN: sunflower (Helianthus annuus), read-out: Visual Growth Reduction (%) 14 Days After Application HELAN
[9] = VIOTR: wild pansy (Viola tricolor), read-out: Visual Growth Reduction (%) 14 Days After Application VIOTR
[10] = Triticum aestivum, TRZSS (wheat), read-out: Visual Growth Reduction (%) 14 Days After Application, TRZSS
[11] = CYPES: yellow nutsedge (Cyperus esculentus), read-out: Visual Growth Reduction (%) 14 Days After Application, CYPES
[12] = DIGSA: crabgrass (Digitaria sanguinalis), read-out: Visual Growth Reduction (%) 14 Days After Application, DIGSA
[13] = ECHCG: barnyardgrass (Echinochloa crus-galli), read-out: Visual Growth Reduction (%) 14 Days After Application, ECHCG
[14] = ORYSA: rice (Oryza sativa), read-out: Visual Growth Reduction (%) 14 Days After Application, ORYSA
[15] = SETFA: giant foxtail (Setaria faberi), read-out: Visual Growth Reduction (%) 14 Days After Application, SETFA
[16] = SORVU: grain sorghum (Sorghum vulgare), read-out: Visual Growth Reduction (%) 14 Days After Application, SORVU
[17] = ZEAMX: maize, corn (Zea mays), read-out: Visual Growth Reduction (%) 14 Days After Application, ZEAMX

| SMILES | pest or weed control at 70 g/ha [1, 3] | pest or weed control at 140 g/ha [1, 3] | pest or weed control at 70 g/ha [1, 4] | pest or weed control at 140 g/ha [1, 4] | pest or weed control at 70 g/ha [1, 5] | pest or weed control at 140 g/ha [1, 5] | pest or weed control at 70 g/ha [1, 6] | pest or weed control at 140 g/ha [1, 6] | pest or weed control at 70 g/ha [1, 7] | pest or weed control at 140 g/ha [1, 7] | pest or weed control at 70 g/ha [1, 8] | pest or weed control at 140 g/ha [1, 8] | pest or weed control at 70 g/ha [1, 9] | pest or weed control at 140 g/ha [1, 9] | pest or weed control at 70 g/ha [2, 10] | pest or weed control at 140 g/ha [2, 10] | pest or weed control at 70 g/ha [2, 11] | pest or weed control at 140 g/ha [2, 11] | pest or weed control at 70 g/ha [2, 12] | pest or weed control at 140 g/ha [2, 12] | further results |
| --- | --- | --- | --- | --- | --- | --- | --- | --- | --- | --- | --- | --- | --- | --- | --- | --- | --- | --- | --- | --- | --- |
| C#Cc1ccc(-c2cc(N)c(Cl)c(C(=O)OC)n2)cc1 [Compound 126] | 95 to 100% | 95 to 100% | 95 to 100% | 95 to 100% | 75 to 84% | 85 to 94% | 95 to 100% | 95 to 100% | 95 to 100% | 95 to 100% | 85 to 94% | 95 to 100% | 0 to 29% | 30 to 44% | 0 to 29% | 0 to 29% | 60 to 74% | 30 to 44% | 75 to 84% | 85 to 94% | pest or weed control at 70 g/ha [2, 13]: 95 to 100%; pest or weed control at 140 g/ha [2, 13]: 95 to 100%; pest or weed control at 70 g/ha [2, 14]: 0 to 29%; pest or weed control at 140 g/ha [2, 14]: 0 to 29%; pest or weed control at 70 g/ha [2, 15]: 0 to 29%; pest or weed control at 140 g/ha [2, 15]: 75 to 84%; pest or weed control at 70 g/ha [2, 16]: 75 to 84%; pest or weed control at 140 g/ha [2, 16]: 85 to 94%; pest or weed control at 70 g/ha [2, 17]: 0 to 29%; pest or weed control at 140 g/ha [2, 17]: 60 to 74% |
| COC(=O)c1nc(-c2cc(F)c(Br)cc2F)cc(N)c1Cl [Compound 127, methyl 4-amino-6-(4-bromo-2,5-difluorophenyl)-3-chloropicolinate] | 95 to 100% | 95 to 100% | 95 to 100% | 95 to 100% | 85 to 94% | 95 to 100% | 95 to 100% | 95 to 100% | 95 to 100% | 95 to 100% | 85 to 94% | 95 to 100% | 95 to 100% | 95 to 100% | 60 to 74% | 75 to 84% | 95 to 100% | 95 to 100% | 85 to 94% | 95 to 100% | pest or weed control at 70 g/ha [2, 13]: 95 to 100%; pest or weed control at 140 g/ha [2, 13]: 95 to 100%; pest or weed control at 70 g/ha [2, 14]: 0 to 29%; pest or weed control at 140 g/ha [2, 14]: 0 to 29%; pest or weed control at 70 g/ha [2, 15]: 95 to 100%; pest or weed control at 140 g/ha [2, 15]: 95 to 100%; pest or weed control at 70 g/ha [2, 16]: 95 to 100%; pest or weed control at 140 g/ha [2, 16]: 95 to 100%; pest or weed control at 70 g/ha [2, 17]: 85 to 94%; pest or weed control at 140 g/ha [2, 17]: 85 to 94% |
| Nc1cc(-c2cc(F)c(I)cc2F)nc(C(=O)O)c1Cl [Compound 131] | 95 to 100% | 95 to 100% | 95 to 100% | 95 to 100% | 95 to 100% | 95 to 100% | 95 to 100% | 95 to 100% | 95 to 100% | 95 to 100% | 85 to 94% | 95 to 100% | 95 to 100% | 95 to 100% | 60 to 74% | 75 to 84% | 85 to 94% | 85 to 94% | 75 to 84% | 75 to 84% | pest or weed control at 70 g/ha [2, 13]: 95 to 100%; pest or weed control at 140 g/ha [2, 13]: 95 to 100%; pest or weed control at 70 g/ha [2, 14]: 0 to 29%; pest or weed control at 140 g/ha [2, 14]: 30 to 44%; pest or weed control at 70 g/ha [2, 15]: 95 to 100%; pest or weed control at 140 g/ha [2, 15]: 95 to 100%; pest or weed control at 70 g/ha [2, 16]: 60 to 74%; pest or weed control at 140 g/ha [2, 16]: 75 to 84%; pest or weed control at 70 g/ha [2, 17]: 85 to 94%; pest or weed control at 140 g/ha [2, 17]: 85 to 94% |
